Assay results: the supplement of paper PMC10307832

Key:
Assay in all cases: relative viability (nuclei count vs DMSO), 5 days (fraction); higher = more cells survive
Ruboxistaurin = compound: CN(C)C[C@@H]1CCn2cc(c3ccccc32)C2=C(C(=O)NC2=O)c2cn(c3ccccc23)CCO1 [Ruboxistaurin]
In short: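 On vehicle-anchored 1536-well plates, lung cancer cell lines held overnight at 37 °C were pinned with five library-drug doses (not always all listed) spaced by √10. With no medium change over 5 days, they were then fixed, permeabilised and Hoechst-stained in one step and imaged at 4×. MetaXpress counted nuclei, and viability is the median across plates of treated-well over vehicle-well nuclei. Acceptance needed control CV below 25% and at least one doubling.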

[1] = compound: CN(C)C[C@@H]1CCn2cc(c3ccccc32)C2=C(C(=O)NC2=O)c2cn(c3ccccc23)CCO1 [Ruboxistaurin] + CC1(C)CCC(c2ccc(Cl)cc2)=C(CN2CCN(c3ccc(C(=O)NS(=O)(=O)c4ccc(N[C@H](CCN5CCOCC5)CSc5ccccc5)c(S(=O)(=O)C(F)(F)F)c4)cc3)CC2)C1 [Navitoclax] (partner 0.5 µM)
In short: (§1)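 Five library-drug doses in √10 steps were combined with a fixed anchor-drug dose, or a single drug was given alone, by pin tool to lung cancer cell lines in 1536-well plates the day after seeding. Nuclei were stained and counted after 5 days. Relative viability is the nuclei count in treated wells over that in vehicle wells, taken as the median of duplicate plates.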

Ruboxistaurin + OSI-027 = compound: CN(C)C[C@@H]1CCn2cc(c3ccccc32)C2=C(C(=O)NC2=O)c2cn(c3ccccc23)CCO1 [Ruboxistaurin] + COc1cccc2cc(-c3nc([C@H]4CC[C@H](C(=O)O)CC4)n4ncnc(N)c34)[nH]c12 [OSI-027] (partner 0.5 µM)
In short: as §1

[2] = compound: CN(C)C[C@@H]1CCn2cc(c3ccccc32)C2=C(C(=O)NC2=O)c2cn(c3ccccc23)CCO1 [Ruboxistaurin] + CS(=O)(=O)N1CCN(Cc2cc3nc(-c4cccc5[nH]ncc45)nc(N4CCOCC4)c3s2)CC1 [Pictilisib] (partner 1 µM)
In short: as §1

[3] = compound: CN(C)C[C@@H]1CCn2cc(c3ccccc32)C2=C(C(=O)NC2=O)c2cn(c3ccccc23)CCO1 [Ruboxistaurin] + Nc1ncn([C@H]2C[C@H](O)[C@@H](CO)O2)c(=O)n1 [Decitabine] (partner 2 µM)
In short: as §1

Row | Cell Line | relative viability (Ruboxistaurin; 0.08 µM) | relative viability (Ruboxistaurin; 0.8 µM) | relative viability (Ruboxistaurin; 2.53 µM) | relative viability (Ruboxistaurin; 8 µM) | relative viability ([1]; first compound 0.08 µM) | relative viability ([1]; first compound 0.8 µM) | relative viability ([1]; first compound 2.53 µM) | relative viability ([1]; first compound 8 µM) | relative viability (Ruboxistaurin + OSI-027; first compound 0.08 µM) | relative viability (Ruboxistaurin + OSI-027; first compound 0.8 µM) | relative viability (Ruboxistaurin + OSI-027; first compound 2.53 µM) | relative viability (Ruboxistaurin + OSI-027; first compound 8 µM) | relative viability ([2]; first compound 0.08 µM) | relative viability ([2]; first compound 0.8 µM) | relative viability ([2]; first compound 2.53 µM) | relative viability ([2]; first compound 8 µM) | relative viability ([3]; first compound 0.08 µM) | relative viability ([3]; first compound 0.8 µM) | relative viability ([3]; first compound 2.53 µM) | relative viability ([3]; first compound 8 µM)
1 | NCI-H2087 | 1.17 | 0.976 | 1.05 | 1.06 | 1.24 | 0.866 | 1.17 | 0.957 | 0.627 | 0.492 | 0.449 | 0.309 | 0.908 | 0.68 | 0.837 | 0.57 | 0.243 | 0.21 | 0.241 | 0.263
2 | NCI-H2126 | 1 | 0.898 | 1.04 | 0.934 | 0.914 | 0.78 | 0.844 | 0.794 | 0.811 | 0.638 | 0.776 | 0.639 | 0.533 | 0.447 | 0.541 | 0.463 | 0.586 | 0.581 | 0.562 | 0.552
3 | NCI-H2170 | 0.994 | 0.875 | 1.06 | 0.953 | 0.57 | 0.592 | 0.581 | 0.56 | 0.736 | 0.599 | 0.67 | 0.536 | 0.301 | 0.256 | 0.322 | 0.253 | 0.464 | 0.472 | 0.509 | 0.458
4 | NCI-H2347 | 1.07 | 0.976 | 1.08 | 1.08 | 0.871 | 0.707 | 0.749 | 0.786 | 0.483 | 0.429 | 0.354 | 0.356 | 0.739 | 0.772 | 0.714 | 0.519 | 0.648 | 0.58 | 0.626 | 0.664
5 | NCI-H2405 | 1.17 | 0.97 | 1.01 | 1.01 | 1.09 | 0.654 | 0.917 | 0.963 | 0.652 | 0.592 | 0.633 | 0.56 | 0.561 | 0.411 | 0.478 | 0.33 | 0.798 | 0.676 | 0.763 | 0.756
6 | NCI-H3122 | 0.98 | 0.963 | 1.01 | 1.07 | 1.02 | 0.919 | 1 | 1.09 | 0.921 | 0.811 | 0.886 | 0.582 | 0.7 | 0.398 | 0.564 | 0.436 | 0.535 | 0.376 | 0.466 | 0.426
